# Measured values as given in patent publication US11492325B2, “Compounds as inhibitors of sodium channels” (Human BioMolecular Research Institute, priority 2016, dated 2022).
# Structures can show the parent of a compound that is named as a salt. Where two headings read alike, the source gives them in different places.
# Columns and labels:
# [1] = tested on: cardiomyocytes derived from hiPSCs from a LQTS3 patient; settings: for LQT-EC50 (μM) Shortening: AP shortening
# [2] = tested on: cardiomyocytes derived from hiPSCs from a LQTS3 patient; assay: cells; settings: Homo sapiens, Cardiomyocyte; for IC50: read-out: LQT-IC50 (uM)-Shortening
# [3] = tested on: normal human induced pluripotent stem cell (hiPSC) cardiomyocyte; settings: for WT-Fold Prolongation: APD; for WT-Cessation Dose (μM): cessation of beating
# [4] = WT cardiomyocytes, AP prolongation
# [5] = LQT-3 cardiomyocytes, cessation of beating
LQT-Cessation Dose ([1]; LQT3 cardiomyocytes),Cessation of Beating ([3]; normal hiPSC cardiomyocytes),WT-EAD Dose ([3]; normal hiPSC cardiomyocytes) [µM],Compound,LQT-Fold Shortening ([1]; LQT3 cardiomyocytes),IC50 [2] [µM],WT-Fold Prolongation ([3]; normal hiPSC cardiomyocytes),WT-Prolongation Dose ([3]; normal hiPSC cardiomyocytes),further results
None,None,–,"Cc1cccc(C)c1OCC(NC(=O)c1ccccc1)c1ccccc1 (centres unmarked) [Compound 29, N-(2-(2,6-dimethylphenoxy)-1-phenylethyl)benzamide]",1.64,> 0.8,None,None,–
200 µM,133 µM,–,"CCCCNC(COc1cccc(C)c1C)c1ccccc1 (centres unmarked) [Compound 30, 2-(2,3-dimethylphenoxy)-N-butyl-1-phenylethanamine]",1.423,20.2,None,None,–
66 µM,133 µM,–,"Cc1cccc(OCC(O)c2ccccc2)c1C (centres unmarked) [Compound 32, 2-(2,3-dimethylphenoxy)-1-phenylethanol]",1.355,7.53,None,None,–
66 µM,133 µM,66,"CCCCNC(C)COc1c(C)cccc1C (centres unmarked) [Compound 39, 1-(2,6-dimethylphenoxy)-N-butylpropan-2-amine]",1.180,0.73,3.827,–,–
None,None,66,"COCCNC(C)COc1c(C)cccc1C (centres unmarked) [Compound 40, 1-(2,6-dimethylphenoxy)-N-methoxy-ethyl-2-amine]",1.267,2.31,4.366,32 µM,LQT-Shortening Dose ([1]; LQT3 cardiomyocytes): 7.4 µM
133 µM,200 µM,–,"CCCc1ccccc1OCC(C)N (centres unmarked) [Compound 49, 1-(2-Propylphenoxy)propan-2-amine]",1.192,0.85,1.385,–,–
None,None,–,"CCc1ccccc1OCC(C)N (centres unmarked) [Compound 50, 1-(2-Ethylphenoxy)propan-2-amine]",1.12,6.01,1.392,–,–
133 µM,66 µM,–,Cc1cccc(C)c1OCC(C)NC(=O)c1ccccc1 (centres unmarked) [Compound 54],1.45,57.8,None,None,–
None,None,133,Cc1cccc(Cl)c1OC[C@@H](C)N [Compound 56],1.189,0.04,3.925,–,–
None,None,200,"Cc1cccc(Cl)c1OC[C@H](C)N [Compound 57, (S)-1-(2-chloro-6-methylphenoxy)propan-2-amine hydrochloride]",1.14,0.19,3.615,–,–
22 µM,None,133,"Cc1ccnc(OCC(N)c2ccccc2)c1 (centres unmarked) [Compound 95, 2-((4-methylpyridin-2-yl)oxy)-1-phenylethan-1-amine]",1.22,–,2.68,–,–
None,None,133,"NC(COc1cc(C(F)(F)F)ccn1)c1ccccc1 (centres unmarked) [Compound 97, 1-phenyl-2-((4-(trifluoromethyl)pyridin-2-yl)oxy)ethan-1-amine]",1.1,–,None,None,–
66 µM,–,–,Cc1cc(C)cc(OCC(NCCN2CCOCC2)c2ccccc2)c1 (centres unmarked) [Compound 98],1.3,–,1.54,–,–

# The remaining lines, values behind:
Compound,LQT-Cessation Dose ([1]; LQT3 cardiomyocytes),Cessation of Beating ([3]; normal hiPSC cardiomyocytes),WT-EAD Dose ([3]; normal hiPSC cardiomyocytes) [µM],LQT-Fold Shortening ([1]; LQT3 cardiomyocytes),IC50 [2] [µM],WT-Fold Prolongation ([3]; normal hiPSC cardiomyocytes),WT-Prolongation Dose ([3]; normal hiPSC cardiomyocytes),further results
"Cc1cccc(C)c1OCC(N)c1ccc(C(F)(F)F)cc1 (centres unmarked) [Compound 16, 2-(2,6-dimethylphenoxy)-1-(4-(trifluoromethyl)phenyl)ethanamine]",66 µM,66 µM,–,1.480,1.38,None,None,–
Cc1cccnc1OCC(=NOCc1ccccc1)c1ccccc1 [Compound 19],133 µM,133 µM,–,1.406,1.38,None,None,"LQT-Fold Shortening ([1]; pyridyl derivatives): 1.406; LQT-Shortening Dose ([1]; pyridyl derivatives): 66 µM; EC50 ([2]; read-out: LQT-EC50 (μM) Shortening, pyridyl derivatives): 1.38 µM; WT-Cessation Dose ([3]; pyridyl derivatives): 133 µM; WT-EC50 (μM) Prolongation ([3]; pyridyl derivatives): Does Not Prolong AP"
"CCCc1ccccc1OCC(N)c1ccccc1 (centres unmarked) [Compound 23, 1-phenyl-2-(2-propylphenoxy)ethanamine]",22 µM,22 µM,–,1.32,0.78,None,None,–
CCc1ccccc1OCC(N)c1ccccc1 (centres unmarked) [Compound 24],22 µM,66 µM,–,1.979,0.38,None,None,–
"COc1ccccc1OCC(N)c1ccccc1 (centres unmarked) [Compound 26, 2-(2-methoxyphenoxy)-1-phenylethanamine]",133 µM,22 µM,7.4,1.482,0.13,2.502,–,–
"CC(=O)NC(COc1c(C)cccc1C)c1ccccc1 (centres unmarked) [Compound 28, N-(2-(2,6-dimethylphenoxy)-1-phenylethyl)acetamide]",66 µM,66 µM,–,1.620,> 0.8,None,None,–
Cc1cccc(C)c1OC[C@@H](N)C1CC1.Cl [Compound 60],–,–,–,1.22,0.11,2.805,–,"LQT-Cessation Dose ([1]; human, 5 min): 200 µM; Cessation of Beating ([3]; human, 5 min): 200 µM; WT-EAD Dose ([3]; human, 5 min): 66 µM"
Cc1cc(C)cc(OC[C@@H](N)C2CC2)c1.Cl [Compound 62],200 µM,200 µM,66,1.19,1.03,1.585,–,–
Cc1cc(C)cc(OC[C@H](N)C2CC2)c1.Cl [Compound 63],200 µM,None,66,1.11,7.5,1.577,–,–
Cc1ccc(OCC(N)C2CC2)c(C)c1.Cl (centres unmarked) [Compound 65],200 µM,200 µM,66,1.119,1.36,2.12,–,–
COCCNC(COc1cc(C)cc(C)c1)C1CC1.Cl (centres unmarked) [Compound 68],200 µM,200 µM,66,1.11,0.022,1.686,–,–
NC(COc1cncc(C(F)(F)F)c1)c1ccccc1 (centres unmarked) [Compound 116],–,–,–,–,–,–,–,"LQT-Fold Shortening ([1]; LQT-3 cardiomyocytes): 1.422; LQT-EC50 (μM) Shortening ([1]; LQT-3 cardiomyocytes): Shortens; WT-EC50 (μM) Prolongation [3, 4]: Does Not Prolong AP"
NC(COc1ccc(C(F)(F)F)nc1)c1ccccc1 (centres unmarked) [Compound 117],–,–,–,–,–,–,–,"LQT-Fold Shortening ([1]; LQT-3 cardiomyocytes): Does Not Shorten; LQT-Shortening Dose (μM) ([1]; LQT-3 cardiomyocytes): Does Not Shorten; LQT-EC50 (μM) Shortening ([1]; LQT-3 cardiomyocytes): Does Not Shorten; WT-EC50 (μM) Prolongation [3, 4]: Does Not Prolong AP"
Cc1ccc(OCC(N)c2ccccc2)c(C)n1 (centres unmarked) [Compound 119],–,–,–,–,–,–,–,"LQT-Fold Shortening ([1]; LQT-3 cardiomyocytes): 1.123; LQT-EC50 (μM) Shortening ([1]; LQT-3 cardiomyocytes): Shortens; WT-EC50 (μM) Prolongation [3, 4]: Does Not Prolong AP; WT-Cessation Dose (μM) ([3]; WT cardiomyocytes): No cessation of beating"
COCCNC(COc1cnccc1C)c1ccccc1 (centres unmarked) [Compound 123],–,–,–,–,–,–,–,"LQT-Fold Shortening ([1]; LQT-3 cardiomyocytes): 1.402; LQT-EC50 (μM) Shortening ([1]; LQT-3 cardiomyocytes): Shortens; WT-EC50 (μM) Prolongation [3, 4]: Does Not Prolong AP"
COCCNC(COc1cnccc1C(F)(F)F)c1ccccc1 (centres unmarked) [Compound 124],–,–,–,–,–,–,–,"LQT-Fold Shortening ([1]; LQT-3 cardiomyocytes): 1.601; LQT-EC50 (μM) Shortening ([1]; LQT-3 cardiomyocytes): Shortens; WT-EC50 (μM) Prolongation [3, 4]: Does Not Prolong AP"
COCCNC(COc1ccc(C)nc1C)c1ccccc1 (centres unmarked) [Compound 125],–,–,–,–,–,–,–,"LQT-Fold Shortening ([1]; LQT-3 cardiomyocytes): Does Not Shorten; LQT-Shortening Dose (μM) ([1]; LQT-3 cardiomyocytes): Does Not Shorten; LQT-EC50 (μM) Shortening ([1]; LQT-3 cardiomyocytes): Does Not Shorten; WT-EC50 (μM) Prolongation [3, 4]: Does Not Prolong AP"
NC(COc1ccnc(C(F)(F)F)c1)c1ccccc1 (centres unmarked) [Compound 128],–,–,–,–,–,–,–,"LQT-Fold Shortening ([1]; LQT-3 cardiomyocytes): 1.226; LQT-EC50 (μM) Shortening ([1]; LQT-3 cardiomyocytes): Shortens; WT-EC50 (μM) Prolongation [3, 4]: Does Not Prolong AP; WT-Cessation Dose (μM) ([3]; WT cardiomyocytes): No cessation of beating"
NC(COc1cc(C(F)(F)F)cc(C(F)(F)F)c1)c1ccc2ccccc2c1 (centres unmarked) [Compound 132],–,–,–,–,–,–,–,"LQT-Fold Shortening ([1]; LQT-3 cardiomyocytes): 1.205; LQT-EC50 (μM) Shortening ([1]; LQT-3 cardiomyocytes): Shortens; LQT-Cessation Dose (μM) [1, 5]: No cessation of beating; WT-EC50 (μM) Prolongation [3, 4]: Does Not Prolong AP"
Cc1cc(C)cc(OCC(N)c2ccc3ccccc3c2)c1 (centres unmarked) [Compound 135],–,–,–,–,–,–,–,"LQT-Fold Shortening ([1]; LQT-3 cardiomyocytes): 1.667; LQT-Shortening Dose ([1]; LQT-3 cardiomyocytes): 133 µM; LQT-EC50 (μM) Shortening ([1]; LQT-3 cardiomyocytes): Shortens; LQT-Cessation Dose [1, 5]: 200 µM; WT-EC50 (μM) Prolongation [3, 4]: Does Not Prolong AP"
